# Patent US8666718B2, “Structure of the C-terminal region of the insulin receptor α-chain and of the insulin-like growth factor receptor α-chain” (The Walter and Eliza Hall Institute of Medical Research, priority 2009, dated 2014)
# Where two headings read alike, the source gives them in different places. Bridge positions count the residues as written; N and C are the ends. Ends that are not written are not given here. Peptide text beside a SMILES is read from it.
# What was measured:
# [1] = molecular target: T1, IR485 (first three N-terminal domains of the human insulin receptor) (Homo sapiens, UniProt P06213, I448T/Q492K/Y171H); assay: ITC titration of hormones, αCT peptides and insulin mimetic peptides against IR485; format: binding; conditions: for ΔH^0 / −TΔS^0: sample IR485 alone, mean of three ± SEM
# T1 construct: made in house; host or cells: Lec8 mutant CHO cells
# Description: In order to study ligand binding to the first three domains of IR ectodomain, isothermal titration calorimetry (ITC) was used. ITC allowed a direct assay of the interactions between the IR ectodomain classical αCT peptide (residues 704-719; SEQ ID NO: 11) and IR485 (a construct consisting of the first three N-terminal domains of the IR; SEQ ID NO: 10), as well as the interaction between the analogous peptide of human IGF-1R and IR485. At the same time the thermodynamics of binding of the N- and C-terminal segments of the insulin mimetic peptide S519 (Schäffer et al., 2003) to IR485, as well as the binding of S519 itself to IR485 were examined. S519 ([…]; SEQ ID NO: 16) is a 36-residue peptide resulting from the affinity-optimization of two covalently-linked peptides, S371, a so-called “Site 1” peptide, and S446, a so-called “Site 2” peptide (Pillutla et al., 2002). […] Finally, the binding to IR485 of the IR αCT peptide carrying a F714A mutation (residues 704-719, […]; SEQ ID NO: 12) was examined.
# The IR485 construct of human IR was expressed in Lec8 mutant CHO cells and purified by gel filtration chromatography as described previously (Lou et al., 2006). IR485 consists of the first 485 residues of the mature human insulin receptor followed by the 16-residue sequence […] (SEQ ID NO: 10), which comprises a serine residue followed by an enterokinase cleavage site and a c-myc epitope tag. The c-myc tag was not removed for the ITC studies described here. IR485 was concentrated to 30 mg/ml in Tris-buffered saline (TBSA; 24.8 mM Tris-HCl (pH 8.0), 137 mM NaCl, 2.7 mM KCl and 0.02% sodium azide) using an Ultrafree centrifugal concentrator (Millipore, USA). Porcine insulin (Sigma-Aldrich, USA) was prepared in a zinc-free-form (termed ZFP-insulin) by extensive dialysis against 0.1% (v/v) acetic acid followed by lyophilization. Human IGF-I was obtained from Novozymes GroPep (Australia) as “receptor grade” material.
# The IR classical αCT peptide (residues 704-719, […]; SEQ ID NO: 11), the IGF-1R classical αCT peptide (residues 691-706, […]; SEQ ID NO: 14) as well as the F714A mutant of IR αCT (denoted IR αCT.714A; SEQ ID NO: 12) were obtained from Genscript Corporation (USA) at the >98% level of purity. The S519N20 peptide ([…]; SEQ ID NO: 17) and the S519C16 peptide ([…]; SEQ ID NO: 18) were obtained from AusPep (Australia) at the >90% level of purity. The S519 peptide ([…]; SEQ ID NO: 16) was obtained from Activotec (UK) at the >85% purity. Peptides were prepared by dissolving in 10 mM HCl at ˜4 mg/ml concentration and then diluting with TBSA. Oxidation of peptides S519N20 and S519 (which contain two cysteine residues) was carried out by incubating the respective peptide (prepared at 1 mg/ml in 50 mM ammonium bicarbonate adjusted to pH 8.5 with ammonia solution) in the dark at room temperature for 2 days and then lyophilizing before use. Oxidation was complete as determined by analysis with Ellman's reagent (5,5′-dithiobis-2-nitrobenzoate). All protein concentrations were determined by absorbance measurement at 280 nm using a NanoDrop 1000 spectrophotometer (Thermo Scientific, USA).
# ITC experiments were performed using a VP-ITC isothermal titration calorimeter (MicroCal Inc., USA) with the calorimeter cell held at 25° C. All samples were degassed prior to injection or placement into the cell, and the instrument was temperature equilibrated prior to the start of the injections. In all experiments the volume of sample placed in the cell was 1.4 ml and the titrant was injected in 7 μl volumes over 14 s at 3 min intervals, with the total number of injections being 40. The sample contents were stirred at a speed of 310 rpm over the duration of the titration. All titrants (i.e. ZFP-insulin, IGF-I, IR αCT peptide, IGF-1R αCT peptide, IR αCT.714A peptide, S519, S519N20, and […]) were first injected into a solution of TBSA alone in order ascertain the heat of dilution, which was then subtracted from the data of interest as appropriate. […]
# [2] = molecular target: T2, IR485 pre-complexed with a 10-fold molar ratio of IR classical αCT peptide (Homo sapiens, UniProt P06213, I448T/Q492K/Y171H); assay: ITC titration against IR485 pre-complexed with a 10-fold molar ratio of IR αCT peptide; format: binding; conditions: 25° C., IR485 + 10 × IR-αCT, mean of three ± SEM
# T2 construct: host or cells: Lec8 mutant CHO cells (IR485)
# Description: (§1) The IR485 construct of human IR was expressed in Lec8 mutant CHO cells and purified by gel filtration chromatography as described previously (Lou et al., 2006). IR485 consists of the first 485 residues of the mature human insulin receptor followed by the 16-residue sequence […] (SEQ ID NO: 10), which comprises a serine residue followed by an enterokinase cleavage site and a c-myc epitope tag. The c-myc tag was not removed for the ITC studies described here. IR485 was concentrated to 30 mg/ml in Tris-buffered saline (TBSA; 24.8 mM Tris-HCl (pH 8.0), 137 mM NaCl, 2.7 mM KCl and 0.02% sodium azide) using an Ultrafree centrifugal concentrator (Millipore, USA). Porcine insulin (Sigma-Aldrich, USA) was prepared in a zinc-free-form (termed ZFP-insulin) by extensive dialysis against 0.1% (v/v) acetic acid followed by lyophilization.
# Peptides were prepared by dissolving in 10 mM HCl at ˜4 mg/ml concentration and then diluting with TBSA. Oxidation of peptides S519N20 and S519 (which contain two cysteine residues) was carried out by incubating the respective peptide (prepared at 1 mg/ml in 50 mM ammonium bicarbonate adjusted to pH 8.5 with ammonia solution) in the dark at room temperature for 2 days and then lyophilizing before use. […] All protein concentrations were determined by absorbance measurement at 280 nm using a NanoDrop 1000 spectrophotometer (Thermo Scientific, USA).
# ITC experiments were performed using a VP-ITC isothermal titration calorimeter (MicroCal Inc., USA) with the calorimeter cell held at 25° C. All samples were degassed prior to injection or placement into the cell, and the instrument was temperature equilibrated prior to the start of the injections. In all experiments the volume of sample placed in the cell was 1.4 ml and the titrant was injected in 7 μl volumes over 14 s at 3 min intervals, with the total number of injections being 40. […] Data were analyzed using the instrument's software incorporated within the Origin 7 software (OriginLab, USA) and in all cases fitted as a single-site interaction using the methodologies outlined in the instrument's manual.
# human IR = human IR (Homo sapiens, UniProt P06213); conditions: Schäffer et al., 2003; cited from earlier work
# ZFP-insulin = molecular target: T3, ZFP-insulin (Sus scrofa, UniProt P01315); assay: ITC titration of IR αCT peptide against ZFP-insulin; format: binding, Porcine; conditions: 25° C.
# T3 construct: purchased Sigma-Aldrich
# Description: as §1, with “Porcine insulin (Sigma-Aldrich, USA) was prepared in a zinc-free-form (termed ZFP-insulin) by extensive dialysis against 0.1% (v/v) acetic acid followed by lyophilization.” left out
# (§2) Peptides were prepared by dissolving in 10 mM HCl at ˜4 mg/ml concentration and then diluting with TBSA. […] All protein concentrations were determined by absorbance measurement at 280 nm using a NanoDrop 1000 spectrophotometer (Thermo Scientific, USA).
# (§3) ITC experiments were performed using a VP-ITC isothermal titration calorimeter (MicroCal Inc., USA) with the calorimeter cell held at 25° C. […] Data were analyzed using the instrument's software incorporated within the Origin 7 software (OriginLab, USA) and in all cases fitted as a single-site interaction using the methodologies outlined in the instrument's manual.
# IGF-I = molecular target: T4, IGF-I (Homo sapiens, UniProt P05019); assay: ITC titration of IGF-1R αCT peptide against IGF-I; format: binding; conditions: 25° C.
# T4 construct: purchased Novozymes GroPep (Australia)
# Description: as §1, with “Porcine insulin (Sigma-Aldrich, USA) was prepared in a zinc-free-form (termed ZFP-insulin) by extensive dialysis against 0.1% (v/v) acetic acid followed by lyophilization.” left out
# as §2, §3
# [3] = molecular target: T5, IR485 pre-complexed with a 10-fold molar ratio of IGF-1R classical αCT peptide (Homo sapiens, UniProt P06213+P08069, I448T/Q492K/Y171H); assay: ITC titration against IR485 pre-complexed with a 10-fold molar ratio of IGF-1R αCT peptide; format: binding; conditions: 25° C., IR485 + 10 × IGF1R-αCT, mean of three ± SEM
# T5 construct: host or cells: Lec8 mutant CHO cells (IR485)
# Description: as §1, with “Porcine insulin (Sigma-Aldrich, USA) was prepared in a zinc-free-form (termed ZFP-insulin) by extensive dialysis against 0.1% (v/v) acetic acid followed by lyophilization.” left out
# as §2, §3
# T2 sequence (P06213 with tags, fused parts or gaps Y171H/I448T/Q492K limits assumed, other chains not shown): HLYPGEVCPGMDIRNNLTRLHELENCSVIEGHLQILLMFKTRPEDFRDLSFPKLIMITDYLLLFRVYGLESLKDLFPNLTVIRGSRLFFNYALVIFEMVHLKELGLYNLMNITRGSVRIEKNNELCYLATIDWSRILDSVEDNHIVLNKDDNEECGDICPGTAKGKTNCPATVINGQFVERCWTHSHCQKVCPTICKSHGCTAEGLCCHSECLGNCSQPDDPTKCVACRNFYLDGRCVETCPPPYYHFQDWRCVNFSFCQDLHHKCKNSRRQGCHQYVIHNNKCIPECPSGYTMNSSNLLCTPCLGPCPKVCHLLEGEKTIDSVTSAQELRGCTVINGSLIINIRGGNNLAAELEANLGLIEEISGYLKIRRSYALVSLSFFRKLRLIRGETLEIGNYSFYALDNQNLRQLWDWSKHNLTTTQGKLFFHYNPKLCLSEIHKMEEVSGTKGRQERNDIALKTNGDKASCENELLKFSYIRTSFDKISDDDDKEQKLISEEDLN
# T1 sequence (P06213 with tags, fused parts or gaps Y171H/I448T/Q492K): as the sequence (P06213 with tags, fused parts or gaps Y171H/I448T/Q492K limits assumed, other chains not shown) above
# T4 sequence (P05019 49-118 limits assumed): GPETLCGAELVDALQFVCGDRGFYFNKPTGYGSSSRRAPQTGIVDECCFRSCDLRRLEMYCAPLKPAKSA
# T3 sequence (P01315 25-54 limits assumed): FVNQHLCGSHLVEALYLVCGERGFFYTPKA
# T3 sequence (P01315 88-108 limits assumed): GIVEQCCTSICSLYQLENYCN
# T5 sequence (P06213 with tags, fused parts or gaps Y171H/I448T/Q492K limits assumed, other chains not shown): as the sequence (P06213 with tags, fused parts or gaps Y171H/I448T/Q492K limits assumed, other chains not shown) above
# human IR, sequence (P06213 28-758 limits assumed): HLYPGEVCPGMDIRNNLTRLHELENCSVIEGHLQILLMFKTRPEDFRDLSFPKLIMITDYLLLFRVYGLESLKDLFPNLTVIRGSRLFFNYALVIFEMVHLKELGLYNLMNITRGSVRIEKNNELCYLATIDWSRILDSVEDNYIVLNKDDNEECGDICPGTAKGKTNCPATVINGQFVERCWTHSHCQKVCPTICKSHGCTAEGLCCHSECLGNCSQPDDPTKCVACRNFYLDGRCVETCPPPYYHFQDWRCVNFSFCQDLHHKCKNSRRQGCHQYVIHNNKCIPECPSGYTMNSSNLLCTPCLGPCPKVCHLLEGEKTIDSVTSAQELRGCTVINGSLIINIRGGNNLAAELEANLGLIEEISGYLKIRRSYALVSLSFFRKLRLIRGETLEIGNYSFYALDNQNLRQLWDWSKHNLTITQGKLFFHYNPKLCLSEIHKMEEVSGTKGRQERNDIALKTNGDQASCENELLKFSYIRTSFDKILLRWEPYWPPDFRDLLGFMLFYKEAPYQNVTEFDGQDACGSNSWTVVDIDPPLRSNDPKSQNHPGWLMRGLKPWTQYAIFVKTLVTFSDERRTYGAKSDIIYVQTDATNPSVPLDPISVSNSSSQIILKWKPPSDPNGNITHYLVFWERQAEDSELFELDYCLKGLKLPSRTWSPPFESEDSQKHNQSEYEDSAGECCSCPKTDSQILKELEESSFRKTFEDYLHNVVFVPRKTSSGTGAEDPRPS
# human IR, sequence (P06213 763-1382 partner limits assumed): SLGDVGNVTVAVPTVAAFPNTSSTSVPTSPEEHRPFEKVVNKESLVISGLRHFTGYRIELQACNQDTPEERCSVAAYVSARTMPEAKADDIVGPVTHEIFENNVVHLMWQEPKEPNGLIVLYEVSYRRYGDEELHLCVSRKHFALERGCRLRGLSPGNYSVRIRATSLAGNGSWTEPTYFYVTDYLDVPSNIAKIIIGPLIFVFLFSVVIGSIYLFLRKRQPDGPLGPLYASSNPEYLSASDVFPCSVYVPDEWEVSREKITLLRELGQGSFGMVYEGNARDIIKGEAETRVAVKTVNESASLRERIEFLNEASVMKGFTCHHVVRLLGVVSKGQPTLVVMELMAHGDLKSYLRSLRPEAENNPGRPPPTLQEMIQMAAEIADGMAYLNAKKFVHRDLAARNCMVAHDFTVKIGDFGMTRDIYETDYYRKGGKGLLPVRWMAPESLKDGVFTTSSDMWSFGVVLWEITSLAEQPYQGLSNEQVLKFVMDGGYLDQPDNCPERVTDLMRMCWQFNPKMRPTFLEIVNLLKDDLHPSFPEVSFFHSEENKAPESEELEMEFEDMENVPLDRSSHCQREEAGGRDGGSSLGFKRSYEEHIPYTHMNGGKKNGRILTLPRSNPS
compound,measurement,setting,value
CC(C)C[C@H](NC(=O)[C@H](CCC(N)=O)NC(=O)[C@H](CCCNC(=N)N)NC(=O)[C@H](CCC(=O)O)NC(=O)[C@H](Cc1ccccc1)NC(=O)[C@H](Cc1c[nH]c2ccccc12)NC(=O)[C@H](CC(=O)O)NC(=O)[C@H](Cc1ccc(O)cc1)NC(=O)[C@H](Cc1ccccc1)NC(=O)[C@H](CO)NC(=O)[C@H](CCC(=O)O)NC(=O)[C@H](CC(=O)O)NC(=O)[C@H](CC(C)C)NC(=O)[C@H](CO)NC(=O)CN)C(=O)NCC(=O)O [S519C16],Kd,[1],0.0026 ± 0.0007 µM
same,ΔH^0,"[1]; ITC, 25° C.",-14.6 ± 0.96 kcal/mol
same,−TΔS^0,"[1]; ITC, 25° C.",2.87 ± 0.96 kcal/mol
same,ΔH^0,[2],-7.89 ± 0.48 kcal/mol
same,−TΔS^0,[2],-2.63 ± 0.72 kcal/mol
CC(C)C[C@H](NC(=O)[C@@H](N)CO)C(=O)N[C@@H](CCC(=O)O)C(=O)N[C@@H](CCC(=O)O)C(=O)N[C@@H](CCC(=O)O)C(=O)N[C@@H](Cc1c[nH]c2ccccc12)C(=O)N[C@@H](C)C(=O)N[C@@H](CCC(N)=O)C(=O)N[C@H](C(=O)N[C@@H](CCC(=O)O)C(=O)N[C@H]1CSSC[C@@H](C(=O)N2CCC[C@H]2C(=O)N[C@@H](CO)C(=O)O)NC(=O)CNC(=O)[C@H](CCCNC(=N)N)NC(=O)CNC(=O)[C@H](Cc2ccc(O)cc2)NC(=O)[C@H](C(C)C)NC(=O)[C@H](CCC(=O)O)NC1=O)C(C)C [S519N20] (H-SLEEEWAQVECEVYGRGCPS-OH; disulfide 11-18),Kd,[1],> 1000 µM
CC(C)C[C@H](NC(=O)[C@H](CCC(N)=O)NC(=O)[C@H](CCCNC(=N)N)NC(=O)[C@H](CCC(=O)O)NC(=O)[C@H](Cc1ccccc1)NC(=O)[C@H](Cc1c[nH]c2ccccc12)NC(=O)[C@H](CC(=O)O)NC(=O)[C@H](Cc1ccc(O)cc1)NC(=O)[C@H](Cc1ccccc1)NC(=O)[C@H](CO)NC(=O)[C@H](CCC(=O)O)NC(=O)[C@H](CC(=O)O)NC(=O)[C@H](CC(C)C)NC(=O)[C@H](CO)NC(=O)CNC(=O)[C@H](CO)NC(=O)[C@@H]1CCCN1C(=O)[C@@H]1CSSC[C@H](NC(=O)[C@H](CCC(=O)O)NC(=O)[C@@H](NC(=O)[C@H](CCC(N)=O)NC(=O)[C@H](C)NC(=O)[C@H](Cc2c[nH]c3ccccc23)NC(=O)[C@H](CCC(=O)O)NC(=O)[C@H](CCC(=O)O)NC(=O)[C@H](CCC(=O)O)NC(=O)[C@H](CC(C)C)NC(=O)[C@@H](N)CO)C(C)C)C(=O)N[C@@H](CCC(=O)O)C(=O)N[C@@H](C(C)C)C(=O)N[C@@H](Cc2ccc(O)cc2)C(=O)NCC(=O)N[C@@H](CCCNC(=N)N)C(=O)NCC(=O)N1)C(=O)NCC(=O)O [S519] (H-SLEEEWAQVECEVYGRGCPSGSLDESFYDWFERQLG-OH; disulfide 11-18; N-terminus and C-terminus assumed),Kd,[1],0.011 ± 0.003 µM
same,ΔH^0,"[1]; ITC, 25° C.",-16.5 ± 1.4 kcal/mol
same,−TΔS^0,"[1]; ITC, 25° C.",5.74 ± 1.4 kcal/mol
same,Kd,human IR,0.02 nM
TFEDYLHNVVAVPRPS [IR-αCT.714A],Kd,[1],6.5 ± 1.7 µM
TFEDYLHNVVFVPRPS [IR-αCT],Kd,[1],3.9 ± 1.1 µM
same,Kd,"ZFP-insulin; interaction with ZFP-insulin, read-out: Kd (estimated, weaker than)",> 1000 µM
same,Kd,"ZFP-insulin; sample ZFP-insulin 20 μM, titrant 200 μM, read-out: Kd",> 1000 µM
VFENFLHNSIFVPRPE [IGF1R-αCT],Kd,[1],17.6 ± 2.1 µM
same,Kd,"IGF-I; interaction with IGF-I, read-out: Kd (estimated, weaker than)",> 1000 µM
same,Kd,"IGF-I; sample IGF-I (printed IGF-IR) 20 μM, titrant 200 μM, read-out: Kd",> 1000 µM
ZFP-insulin: Porcine insulin (Sigma-Aldrich) prepared in a zinc-free form by dialysis against acetic acid and lyophilization,Kd,"[1]; ITC, 25° C., TBSA, sample IR485, mean of three experiments ± SEM, single-site model, read-out: Kd",> 1000 µM
same,Kd,[2],0.017 ± 0.004 µM
same,Kd,[3],0.0057 ± 0.0011 µM
